Read-outs that look alike come from different tables or passages of the source. Where a SMILES comes first, the peptide text is derived from it.
Molecular target: T1, angiotensin converting enzyme (ACE) (Oryctolagus cuniculus, UniProt P12822)
T1 construct: resulting supernatant was purified with hydroxyapatite to obtain 1 unit/mg protein of angiotensin converting enzyme liquid; tissue Sigma Co., Ltd. (alternative source); host or cells: rabbit lung (acetone powder extract purified with hydroxyapatite)
T1 sequence (P12822 34-1310): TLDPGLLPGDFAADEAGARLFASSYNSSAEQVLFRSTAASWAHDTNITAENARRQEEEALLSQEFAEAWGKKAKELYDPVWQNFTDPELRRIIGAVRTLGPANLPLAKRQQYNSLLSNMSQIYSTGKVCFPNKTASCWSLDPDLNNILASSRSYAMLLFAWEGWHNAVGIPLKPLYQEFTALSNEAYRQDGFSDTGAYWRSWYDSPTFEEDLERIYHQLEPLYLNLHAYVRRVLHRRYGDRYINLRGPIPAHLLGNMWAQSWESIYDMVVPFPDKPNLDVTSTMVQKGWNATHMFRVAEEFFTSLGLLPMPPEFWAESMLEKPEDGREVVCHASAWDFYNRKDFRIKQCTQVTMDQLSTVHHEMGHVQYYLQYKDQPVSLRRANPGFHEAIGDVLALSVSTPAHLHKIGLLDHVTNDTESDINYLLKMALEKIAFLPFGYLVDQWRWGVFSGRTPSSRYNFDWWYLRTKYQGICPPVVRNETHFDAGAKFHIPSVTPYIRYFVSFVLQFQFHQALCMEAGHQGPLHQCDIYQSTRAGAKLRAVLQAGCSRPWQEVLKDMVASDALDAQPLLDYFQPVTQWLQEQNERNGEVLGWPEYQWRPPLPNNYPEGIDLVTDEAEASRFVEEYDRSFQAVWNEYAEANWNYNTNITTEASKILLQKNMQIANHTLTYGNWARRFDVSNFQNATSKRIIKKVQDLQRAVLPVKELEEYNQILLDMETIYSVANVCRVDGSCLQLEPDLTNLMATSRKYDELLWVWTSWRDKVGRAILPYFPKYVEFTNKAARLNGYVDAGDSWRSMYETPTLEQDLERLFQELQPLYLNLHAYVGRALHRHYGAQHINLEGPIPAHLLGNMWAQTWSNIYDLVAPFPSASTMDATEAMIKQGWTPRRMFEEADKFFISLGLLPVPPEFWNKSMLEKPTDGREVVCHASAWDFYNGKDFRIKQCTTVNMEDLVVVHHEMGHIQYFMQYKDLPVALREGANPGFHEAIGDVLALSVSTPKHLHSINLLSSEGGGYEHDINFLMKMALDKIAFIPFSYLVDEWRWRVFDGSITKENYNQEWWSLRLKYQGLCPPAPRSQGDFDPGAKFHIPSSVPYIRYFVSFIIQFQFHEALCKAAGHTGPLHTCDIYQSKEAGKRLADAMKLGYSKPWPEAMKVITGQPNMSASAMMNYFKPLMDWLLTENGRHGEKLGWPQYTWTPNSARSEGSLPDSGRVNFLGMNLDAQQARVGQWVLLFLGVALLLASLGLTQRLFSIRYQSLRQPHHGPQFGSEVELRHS
Test: ACE inhibitory activity (Test Example 1, Cheung and Cushman's method, hippuryl histidyl leucine substrate)
Assay type: biochemical, rabbit
Conditions: for ACE inhibitory activity value, comparison in words: comparison among dipeptides of Table 30; for The contribution rate in KATSUOBUSHI peptide: contribution of each dipeptide in KATSUOBUSHI peptide
Protocol: ACE inhibitory activity was measured as below.
5 g of rabbit lung acetone powder was dissolved in 50 mL of 0.1M sodium borate buffer (pH8.3), centrifuged under the condition of 40000G and for 40 minutes and resulting supernatant was purified with hydroxyapatite to obtain 1 unit/mg protein of angiotensin converting enzyme liquid. Purified ACE derived from rabbit lung (Sigma Co., Ltd., 0.25 unit), alternatively, was used.
0.030 mL of the various concentrations of the dipeptide composition solutions were taken into test tubes, respectively, and then, 0.1 mL of the angiotensin converting enzyme liquid as above was added into the test tubes to react with the composition at 37° C. for 5 minutes. Subsequently, 0.25 mL of hippuryl histidyl leucine (PEPTIDE Lab., Bz-Gly-His-Leu.H2O, the final concentration of 5 mM, including 300 mM of NaCl) as a substrate was added to the test tubes to react with the enzyme at 37° C. for 30 minutes. 0.25 mL of 1N hydrochloric acid, then, was added to the test tube to terminate the reaction, 1.5 mL of ethyl acetate was added to the test tube and stirred with the vortex mixer for 20 seconds, followed by centrifuging (3000 rotations, for 5 minutes) and 1 mL of ethyl acetate layer was isolated.
The inhibitory rate was calculated according to the following formula.
The inhibitory=[1−(A−a)/(B−b)]×100

[1] = isolated peptides, Table 10, read-out: ACE inhibitory activity (IC50: μM)
[2] = Table 30, dipeptides of the invention and other dipeptides, read-out: ACE inhibitory value IC50
[3] = isolated peptides, Table 11, read-out: ACE inhibitory activity (IC50: μM)
[4] = isolated peptides, Table 9, read-out: ACE inhibitory activity (IC50: μM)

CC[C@H](C)[C@H](N)C(=O)N[C@@H](Cc1c[nH]c2ccccc12)C(=O)O [Isoleucine-tryptophan, isoleucine-tryptophan]
contribution rate in KATSUOBUSHI peptide, in words: high
ACE inhibitory activity value, comparison in words: much higher value than the other dipeptides
The contribution rate in KATSUOBUSHI peptide: 2.040%
IC50 [1]: 2 µM

CC(C)[C@H](N)C(=O)N1CCC[C@H]1C(=O)O [Valine-proline, reference compound] (H-Val-Pro-OH)
IC50 [2]: 420 µM

C[C@H](N)C(=O)N[C@@H](Cc1c[nH]c2ccccc12)C(=O)O [Alanine-tryptophan, alanine-tryptophan] (H-Ala-Trp-OH; N-terminus and C-terminus assumed)
contribution rate in KATSUOBUSHI peptide, in words: high
The contribution rate in KATSUOBUSHI peptide: 0.672%
IC50 [3]: 10 µM

N[C@@H](CO)C(=O)N[C@@H](Cc1c[nH]c2ccccc12)C(=O)O [Serine-tryptophan, serine-tryptophan] (H-Ser-Trp-OH; N-terminus and C-terminus assumed)
The contribution rate in KATSUOBUSHI peptide: 0.099%
IC50 [3]: 22.1 µM

CC(C)[C@H](N)C(=O)N[C@@H](Cc1ccc(O)cc1)C(=O)O [Valine-tyrosine, valine-tyrosine] (H-Val-Tyr-OH; N-terminus and C-terminus assumed)
IC50 [4]: 11 µM

NC(=O)CC[C@H](N)C(=O)N[C@@H](Cc1c[nH]c2ccccc12)C(=O)O [Glutamine-tryptophan, glutamine-tryptophan] (H-Gln-Trp-OH; N-terminus and C-terminus assumed)
The contribution rate in KATSUOBUSHI peptide: 0.048%
IC50 [3]: 32.6 µM

CSCC[C@H](NC(=O)[C@@H](N)Cc1c[nH]c2ccccc12)C(=O)O [Tryptophan-methionine, tryptophan-methionine] (H-Trp-Met-OH)
The contribution rate in KATSUOBUSHI peptide: 0.054%
IC50 [1]: 36.5 µM

CC(C)C[C@H](N)C(=O)N[C@@H](Cc1c[nH]c2ccccc12)C(=O)O [Leucine-tryptophan, leucine-tryptophan]
IC50 [4]: 23 µM

CC(C)[C@H](N)C(=O)N[C@@H](Cc1c[nH]c2ccccc12)C(=O)O [Valine-tryptophan, valine-tryptophan] (H-Val-Trp-OH)
contribution rate in KATSUOBUSHI peptide, in words: high
ACE inhibitory activity value, comparison in words: much higher value than the other dipeptides
The contribution rate in KATSUOBUSHI peptide: 4.031%

NC(=O)C[C@H](N)C(=O)N[C@@H](Cc1c[nH]c2ccccc12)C(=O)O [Asparagine-tryptophan, asparagine-tryptophan] (H-Asn-Trp-OH; N-terminus and C-terminus assumed)
The contribution rate in KATSUOBUSHI peptide: 0.099%

NCC(=O)N[C@@H](Cc1c[nH]c2ccccc12)C(=O)O [Glycine-tryptophan, glycine-tryptophan] (H-Gly-Trp-OH)
The contribution rate in KATSUOBUSHI peptide: 0.366%
IC50 [3]: 30 µM

CC[C@H](C)[C@H](N)C(=O)N[C@@H](Cc1ccccc1)C(=O)O [Isoleucine-phenylalanine, reference compound] (H-Ile-Phe-OH; N-terminus and C-terminus assumed)
IC50 [2]: 930 µM

CC(C)C[C@H](NC(=O)[C@@H](N)Cc1c[nH]c2ccccc12)C(=O)O [Tryptophan-leucine, tryptophan-leucine] (H-Trp-Leu-OH; N-terminus and C-terminus assumed)
IC50 [4]: 25.1 µM

CC[C@H](C)[C@H](NC(=O)[C@@H](N)Cc1c[nH]c2ccccc12)C(=O)O [Tryptophan-isoleucine, tryptophan-isoleucine] (H-Trp-Ile-OH; N-terminus and C-terminus assumed)
IC50 [4]: 33.1 µM

CSCC[C@H](N)C(=O)N[C@@H](Cc1c[nH]c2ccccc12)C(=O)O [Methionine-tryptophan, methionine-tryptophan] (H-Met-Trp-OH; N-terminus and C-terminus assumed)
ACE inhibitory activity value, comparison in words: much higher value than the other dipeptides
The contribution rate in KATSUOBUSHI peptide: 0.343%
IC50 [1]: 3.8 µM

N[C@@H](Cc1c[nH]c2ccccc12)C(=O)N[C@@H](Cc1ccc(O)cc1)C(=O)O [Tryptophan-tyrosine, tryptophan-tyrosine] (H-Trp-Tyr-OH; N-terminus and C-terminus assumed)
The contribution rate in KATSUOBUSHI peptide: 0.021%
IC50 [1]: 57 µM

NC(=O)C[C@H](NC(=O)[C@@H](N)Cc1c[nH]c2ccccc12)C(=O)O [Tryptophan-asparagine, tryptophan-asparagine] (H-Trp-Asn-OH; N-terminus and C-terminus assumed)
IC50 [4]: 580 µM

From patent publication US20150183822A1, “ANGIOTENSIN-CONVERTING-ENZYME INHIBITING DIPEPTIDE” (YAMAKI Co., Ltd., priority 2012, published 2015)
